Patent publication US9850272B2, “Therapeutically active estratrienthiazole derivatives as inhibitors of 17.beta-hydroxy-steroid dehydrogenase, type 1” (FORENDO PHARMA LTD, priority 2013, dated 2017)
Structures can show the parent of a compound that is named as a salt. Where two headings read alike, the source gives them in different places.

Assays:
[1] = target: T1, Recombinant Human 17β-HSD1 (Homo sapiens, UniProt P14061); experiment: Inhibition of recombinant human 17β-HSD1 (conversion of 3H-estrone to estradiol, HPLC); assay type: biochemical; conditions: read-out: 17β-HDS1 Inhibition % at 1 μM
T1 construct: made in house; host or cells: Sd9 (Sf9) insect cells, baculovirus (Bac to Bac Expression System)
T1 sequence (P14061 1-328): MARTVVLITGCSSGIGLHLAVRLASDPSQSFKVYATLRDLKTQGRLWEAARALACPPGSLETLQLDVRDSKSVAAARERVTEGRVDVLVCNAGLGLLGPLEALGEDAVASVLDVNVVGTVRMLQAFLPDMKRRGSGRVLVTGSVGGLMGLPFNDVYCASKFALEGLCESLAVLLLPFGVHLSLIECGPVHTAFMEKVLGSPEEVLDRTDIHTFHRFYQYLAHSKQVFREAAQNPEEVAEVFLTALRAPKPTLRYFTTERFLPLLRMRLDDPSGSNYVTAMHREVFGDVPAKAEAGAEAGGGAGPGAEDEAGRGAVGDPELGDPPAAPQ
Method: 17β-HSD1 Production and Isolation:
Recombinant baculovirus was generated by the “Bac to Bac Expression System” (Invitrogen). Recombinant bacmid was transfected to Sd9 insect cells using “Cellfectin Reagent” (Invitrogen). 60 h later cells were harvested; the microsomal fraction was isolated as described by Puranen, T. J., Poutanen, M. H., Peltoketo, H. E., Vihko, P. T. and Vihko, R. K. (1994) Site-directed mutagenesis of the putative active site of human 17 β-hydroxysteroid dehydrogenase type 1. Biochem. J. 304: 289-293. Aliquots were stored frozen until determination of enzymatic activity.
Assay—Inhibition of Recombinant Human 17β-HSD1:
Recombinant protein (1 μg/ml) was incubated in 20 mM KH2PO4 pH 7.4 with 30 nM estrone (including 800.000 cpm/ml of ^3H-estrone) and 1 mM NADPH for 30 min at RT, in the presence of the potential inhibitor at concentrations 1 μM or 0.1 μM. Inhibitor stock solutions were prepared in DMSO. Final concentration of DMSO was adjusted to 1% in all samples. The enzyme reaction was stopped by addition of 10% trichloroacetic acid (final concentration). Samples were centrifuged in a microtiter plate at 4000 rpm for 10 min. Supernatants were applied to reverse phase HPLC on a Waters Symmetry C18 column, equipped with a Waters Sentry Guard column. Isocratic HPLC runs were performed at RT at a flow rate of 1 ml/min in acetonitrile:water 48:52 as running solvent. Radioactivity was monitored in the eluate by a Packard Flow Scintillation Analyzer. Total radioactivity for estrone and estradiol were determined in each sample and percent conversion of estrone to estradiol was calculated according to the following formula:
(§1) Percent inhibition was calculated flowingly: % inhibition=100−% conversion

[2] = target: T2, Recombinant Human 17β-HSD2 (Homo sapiens, UniProt P37059); experiment: Inhibition of recombinant human 17β-HSD2 (conversion of 3H-estradiol to estrone, HPLC); assay type: biochemical; conditions: read-out: 17β-HSD2 Inhibition % at 1 μM
T2 construct: made in house; host or cells: Sd9 (Sf9) insect cells, baculovirus (Bac to Bac Expression System)
T2 sequence (P37059 1-387): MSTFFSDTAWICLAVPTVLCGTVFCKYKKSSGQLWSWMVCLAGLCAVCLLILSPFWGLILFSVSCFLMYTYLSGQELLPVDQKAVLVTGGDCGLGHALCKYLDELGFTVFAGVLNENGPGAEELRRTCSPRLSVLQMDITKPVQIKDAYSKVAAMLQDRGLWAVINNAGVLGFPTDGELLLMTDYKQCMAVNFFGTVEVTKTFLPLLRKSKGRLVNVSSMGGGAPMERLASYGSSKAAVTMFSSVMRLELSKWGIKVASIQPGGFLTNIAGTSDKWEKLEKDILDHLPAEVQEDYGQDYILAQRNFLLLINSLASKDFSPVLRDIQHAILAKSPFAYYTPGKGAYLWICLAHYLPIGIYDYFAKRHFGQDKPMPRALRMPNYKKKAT
Method: 17β-HSD2 Production and Isolation:
Similarly to 17β-HSD1 the Recombinant baculovirus was generated by the “Bac to Bac Expression System” (Invitrogen). Recombinant bacmid was transfected to Sd9 insect cells using “Cellfectin Reagent” (Invitrogen). 60 h later cells were harvested and supernatant were fractionated by the following protocol: • cells were dissolved into 40 ml of A-buffer (40 mM TRIS, pH8.0, 20% glycerol, 20 μM NAD, 0.4 mM PMSF, 150 mM NaCl, 0.5% dodecyl-β-maltoside+protease inhibitor cocktail) • cells were sonicated • lysate was incubated on ice for 15 min • lysate was centrifuged 5000 rpm 15 min, +4° C. • centrifugation of the supernatant 180.000 g 30 min, +4° C. • pellet was dissolved into 8 ml of A-buffer • not resuspended material was removed by centrifugation 5000 rpm 15 min, +4° C. • the clear supernatant was divided into 100 μl aliquots and were stored frozen until determination of enzymatic activity.
The amount of 17β-HSD2 was analysed by immunoblotting and total protein concentration of each extract batch was determined.
Assay—Inhibition of Recombinant Human 17β-HSD2:
Recombinant protein (4 μg/ml) was incubated in 20 mM KH2PO4 pH 8.5 with 50 nM estradiol (including 800.000 cpm/ml of ^3H-estradiol) and 1 mM NADH for 30 min at RT, in the presence of the potential inhibitor at concentrations 1 μM or 0.1 μM. Inhibitor stock solutions were prepared in DMSO. Final concentration of DMSO was adjusted to 1% in all samples. The enzyme reaction was stopped by addition of 10% trichloroacetic acid (final concentration). Samples were centrifuged in a microtiter plate at 4000 rpm for 10 min. Supernatants were applied to reverse phase HPLC on a Waters Symmetry C18 column, equipped with a Waters Sentry Guard column. Isocratic HPLC runs were performed at RT at a flow rate of 1 ml/min in acetonitrile:water 48:52 as running solvent. Radioactivity was monitored in the eluate by a Packard Flow Scintillation Analyzer. Total radioactivity for estrone and estradiol were determined in each sample and percent conversion of estradiol to estrone was calculated according to the following formula:
as §1

[3] = inhibitor at 1 μM, 30 nM estrone, 1 mM NADPH, 30 min at RT
[4] = inhibitor at 1 μM, 50 nM estradiol, 1 mM NADH, 30 min at RT

SMILES	inhibition at 1 µM [1, 3]	inhibition at 1 µM [2, 4]	inhibition at 1 µM [1]	inhibition at 1 µM [2]
Cc1cnc(NC(=O)CC[C@@H]2C[C@H](O)[C@@]3(C)CCC4c5ccc(O)cc5CCC4C23)s1 (stereo partly drawn) [Compound 1, 3-((13S,15R,17S)-3,17-Dihydroxy-13-methyl-7,8,9,11,12,13,14,15,16,17decahydro-6H-cyclopenta[a]phenanthren-15-yl)-N-(5-methylthiazol-2-yl)propanamide]	98%	48%	–	–
COc1ccc2c(c1)CCC1C2CC[C@@]2(C)C1[C@H](CCC(=O)Nc1ncc(C)s1)C[C@@H]2O (stereo partly drawn) [Compound 6, 3-((13S,15R,17S)-17-Hydroxy-3-methoxy-13-methyl-7,8,9,11,12,13,14,15,16,17-decahydro-6H-cyclopenta[a]phenanthren-15-yl)-N-(5-methylthiazol-2-yl)propanamide]	58%	3%	–	–
Cc1cnc(NC(=O)CC[C@@H]2C[C@@](O)(C#N)[C@@]3(C)CCC4c5ccc(O)cc5CCC4C23)s1 (stereo partly drawn) [Compound 21, 3-((13S,15R,17S)-17-cyano-3,17-dihydroxy-13-methyl-7,8,9,11,12,13,14,15,16,17-decahydro-6H-cyclopenta[a]phenanthren-15-yl)-N-(5-methylthiazol-2-yl)propanamide]	76%	6%	–	–
CC(=O)Oc1ccc2c(c1)CCC1C2CC[C@@]2(C)C1[C@H](CCC(=O)Nc1ncc(C)s1)C[C@@]2(O)C#N (stereo partly drawn) [Compound 22, (13S,15R,17S)-17-cyano-17-hydroxy-13-methyl-15-(3-((5-methylthiazol-2-yl)amino)-3-oxopropyl)-7,8,9,11,12,13,14,15,16,17-decahydro-6H-cyclopenta[a]phenanthren-3-yl acetate]	71%	1%	–	–
COc1ccc2c(c1)CCC1C2CC[C@@]2(C)C1[C@H](CCC(=O)Nc1ncc(C)s1)C[C@@]2(O)C#N (stereo partly drawn) [Compound 23, 3-((13S,15R,17S)-17-cyano-17-hydroxy-3-methoxy-13-methyl-7,8,9,11,12,13,14,15,16,17-decahydro-6H-cyclopenta[a]phenanthren-15-yl)-N-(5-methylthiazol-2-yl)propanamide]	82%	3%	–	–
Cc1cnc(NC(=O)CC[C@@H]2C[C@@](O)(CC#N)[C@@]3(C)CCC4c5ccc(O)cc5CCC4C23)s1 (stereo partly drawn) [Compound 24, 3-((13S,15R,17R)-17-(cyanomethyl)-3,17-dihydroxy-13-methyl-7,8,9,11,12,13,14,15,16,17-decahydro-6H-cyclopenta[a]phenanthren-15-yl)-N-(5-methylthiazol-2-yl)propanamide]	51%	4%	–	–
Cc1cnc(NC(=O)CC[C@@H]2C[C@H](O)[C@@]3(C)CCC4c5cc(Br)c(O)c(Br)c5CCC4C23)s1 (stereo partly drawn) [Compound 28, 3-((13S,15R,17S)-2,4-dibromo-3,17-dihydroxy-13-methyl-7,8,9,11,12,13,14,15,16,17-decahydro-6H-cyclopenta[a]phenanthren-15-yl)-N-(5-methylthiazol-2-yl)propanamide]	91%	15%	–	–
CO[C@H]1C[C@@H](CCC(=O)Nc2ncc(C)s2)C2C3CCc4c(cc(Br)c(O)c4Br)C3CC[C@@]21C (stereo partly drawn) [Compound 29, 3-((13S,15R,17S)-2,4-dibromo-3-hydroxy-17-methoxy-13-methyl-7,8,9,11,12,13,14,15,16,17-decahydro-6H-cyclopenta[a]phenanthren-15-yl)-N-(5-methylthiazol-2-yl)propanamide]	67%	3%	–	–
Cc1cnc(NC(=O)CC[C@@H]2C[C@@](O)(CC#N)[C@@]3(C)CCC4c5cc(Br)c(O)c(Br)c5CCC4C23)s1 (stereo partly drawn) [Compound 30, 3-((13S,15R,17R)-2,4-dibromo-17-(cyanomethyl)-3,17-dihydroxy-13-methyl-7,8,9,11,12,13,14,15,16,17-decahydro-6H-cyclopenta[a]phenanthren-15-yl)-N-(5-methylthiazol-2-yl)propanamide]	52%	7%	–	–
CC(=O)O[C@H]1C[C@@H](CCC(=O)Nc2ncc(C)s2)C2C3CCc4cc(O)ccc4C3CC[C@@]21C (stereo partly drawn) [Compound 36]	64%	3%	–	–
Cc1cnc(NC(=O)CC[C@@H]2C[C@H](OC(=O)CCC(=O)O)[C@@]3(C)CCC4c5ccc(O)cc5CCC4C23)s1 (stereo partly drawn) [Compound 43, Succinic acid mono-{(13S,15R,17S)-3-hydroxy-13-methyl-15-[2-(5-methylthiazol-2-ylcarbamoyl)-ethyl]-17-oxo-7,8,9,11,12,13,14,15,16,17-decahydro-6H-cyclopenta[a]phenanthren-17-yl}ester]	97%	1%	–	–
Cc1cnc(NC(=O)CC[C@@H]2C[C@H](OC(=O)CCC(=O)O)[C@@]3(C)CCC4c5ccc(O)cc5CCC4C23)s1 (stereo partly drawn) [Compound 44, sodium salt]	–	–	94%	2%
COc1ccc2c(c1)CCC1C2CC[C@@]2(C)C1[C@H](CCC(=O)Nc1ncc(C)s1)C[C@@H]2OP(=O)(O)O (stereo partly drawn) [Compound 46, Phosphoric acid mono-{(13S,15R,17S)-3-methoxy-13-methyl-15-[2-(5-methylthiazol-2-ylcarbamoyl)-ethyl]-17-oxo-7,8,9,11,12,13,14,15,16,17-decahydro-6H-cyclopenta[a]phenanthren-17-yl}ester]	84%	1%	–	–
Cc1cnc(NC(=O)CC[C@@H]2C[C@H](OP(=O)(O)O)[C@@]3(C)CCC4c5ccc(O)cc5CCC4C23)s1 (stereo partly drawn) [Compound 60]	74%	0%	–	–
Cc1cnc(NC(=O)CC[C@@H]2CC(O)[C@@]3(C)CCC4c5ccccc5CCC4C23)s1 (stereo partly drawn) [Compound 67, 3-((13S,15R)-17-Hydroxy13-methyl-7,8,9,11,12,13,14,15,16,17-decahydro-6H-cyclopenta[a]phenanthren-15-yl)-N-(5-methylthiazol-2-yl)propanamide]	74%	30%	–	–
